In one assay the target is FPR. To be noted: read-out: Kd for FPR; cited from earlier work.
In the next assay the test system is FPRL1. To be noted: cited from earlier work.
Assay [1] concerns the target formyl peptide receptor-like 1. To be noted: cited from earlier work.
In another assay the target is T1, WKGMVm.
T1 chain: WKGMV[dM]
The assay can be described thus: competition flow cytometry.

The target in the next assay is T2, WKRMVm.
T2 chain: WKRMV[dM]
As to the kind of experiment: competition flow cytometry.

The target of the next assay is WKYMVm. The assay can be described thus: competition.

Non-standard residues stand in square brackets, D forms with d. No end group written: not given here. *: point of attachment. Nle = CCCC[C@H](N)C(=O)O; For = O=C*

Results on three molecules are retold here after PMC2917377 (Cytometry. Part A : the journal of the International …, 2009).

Regarding “N-formyl -Met-Leu-Phe-Lys-fluorescein (For-MLFK(fluorescein)) [fMLFK-FITC]”, the Kd at FPR was 3 nM. Also, the “Binding to FPRL1” value in the assay on FPRL1 was “does not bind”.

Take W[Nle]YM [WNleYM]: the concentration for a half-maximal effect (EC50) in assay [1] is 5.34 nM.

B1: FPRL1 (protein)
chain: METNFSTPLNEYEEVSYESAGYTVLRILPLVVLGVTFVLGVLGNGLVIWVAGFRMTRTVTTICYLNLALADFSFTATLPFLIVSMAMGEKWPFGWFLCKLIHIVVDINLFGSVFLIGFIALDRCICVLHPVWAQNHRTVSLAMKVIVGPWILALVLTLPVFLFLTTVTIPNGDTYCTFNFASWGGTPEERLKVAITMLTARGIIRFVIGFSLPMSIVAICYGLIAAKIHKKGMIKSSRPLRVLTAVVASFFICWFPFQLVALLGTVWLKEMLFYGKYKIIDILVNPTSSLAFFNSCLNPMLYVFVGQDFRERLIHSLPTSLERALSEDSAPTNDTAANSASPPAETELQAM
Consider B1, for which the IC50 amounted to 176 nM with WKGMVm, 705 nM with WKRMVm and 1.8 nM in the assay with WKYMVm.
